Read-outs that look alike come from different tables or passages of the source. Bridge positions count the residues as written; N and C are the ends. Square brackets hold non-standard residues; d marks the D form. Peptide text beside a SMILES is read from it. Phe(4-NO2) = N[C@@H](Cc1ccc([N+](=O)[O-])cc1)C(=O)O; Phe(4-F) = N[C@@H](Cc1ccc(F)cc1)C(=O)O; Phe(4-Me) = Cc1ccc(C[C@H](N)C(=O)O)cc1; Nle = CCCC[C@H](N)C(=O)O
Columns and labels:
[1] = biological target: Rat whole blood (Rattus norvegicus, UniProt P15384)
Rat whole blood, sequence (P15384 whole entry): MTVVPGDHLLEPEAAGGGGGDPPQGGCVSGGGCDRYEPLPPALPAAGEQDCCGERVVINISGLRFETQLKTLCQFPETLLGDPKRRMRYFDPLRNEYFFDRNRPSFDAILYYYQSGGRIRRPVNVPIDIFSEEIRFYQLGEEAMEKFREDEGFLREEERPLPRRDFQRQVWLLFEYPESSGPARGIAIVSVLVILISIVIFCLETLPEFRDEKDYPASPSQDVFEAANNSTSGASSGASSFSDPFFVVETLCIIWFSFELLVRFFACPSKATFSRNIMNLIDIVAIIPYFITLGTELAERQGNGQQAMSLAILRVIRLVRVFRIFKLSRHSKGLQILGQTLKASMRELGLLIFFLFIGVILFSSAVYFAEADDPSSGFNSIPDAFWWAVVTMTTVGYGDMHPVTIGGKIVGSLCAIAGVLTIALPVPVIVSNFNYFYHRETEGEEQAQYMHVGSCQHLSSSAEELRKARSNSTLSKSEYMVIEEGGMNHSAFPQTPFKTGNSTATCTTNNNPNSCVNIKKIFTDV

[2] = biological target: T1, human Kv1.3 voltage-gated K+ channel (Homo sapiens, UniProt P22001); assay: cell-based; settings: inhibition of thallium flux, CHO-DUKX cells with human Kv1.3; read-out: IC50
T1 construct: host or cells: CHO-DUKX
T1 sequence (P22001 whole entry): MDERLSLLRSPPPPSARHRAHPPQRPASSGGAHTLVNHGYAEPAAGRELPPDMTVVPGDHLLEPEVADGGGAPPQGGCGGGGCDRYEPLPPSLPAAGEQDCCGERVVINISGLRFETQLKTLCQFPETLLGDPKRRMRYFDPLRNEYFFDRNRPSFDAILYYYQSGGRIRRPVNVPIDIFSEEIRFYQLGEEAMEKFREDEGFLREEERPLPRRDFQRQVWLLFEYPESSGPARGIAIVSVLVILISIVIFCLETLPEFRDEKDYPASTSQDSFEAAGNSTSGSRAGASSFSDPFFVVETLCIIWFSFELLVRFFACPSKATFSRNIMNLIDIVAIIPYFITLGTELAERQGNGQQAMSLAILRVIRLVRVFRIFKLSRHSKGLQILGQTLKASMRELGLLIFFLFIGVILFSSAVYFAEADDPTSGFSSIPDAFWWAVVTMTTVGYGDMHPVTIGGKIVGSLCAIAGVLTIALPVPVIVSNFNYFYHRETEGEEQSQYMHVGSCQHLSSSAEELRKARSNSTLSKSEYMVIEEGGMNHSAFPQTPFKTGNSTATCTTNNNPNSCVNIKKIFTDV

[3] = inhibition of IL-17A release, thapsigargin, 24 Hr, at least 2 replicates

| SMILES | IC50 [1] | IC50 [1, 3] | IC50 [2] |
| --- | --- | --- | --- |
| CCCC[C@H](NC(=O)[C@H](CC(=O)O)NC(=O)[C@H](CCCC)NC(=O)[C@@H](N)CO)C(=O)N[C@@H](CCCNC(=N)N)C(=O)N[C@H]1CSSC[C@@H]2NC(=O)[C@H](CCCCN)NC(=O)CNC(=O)[C@H](Cc3ccccc3)NC(=O)[C@H]([C@@H](C)CC)NC(=O)[C@H](CO)NC(=O)CNC(=O)[C@H]([C@@H](C)CC)NC(=O)[C@H](C)NC(=O)[C@H](CCCCN)NC(=O)[C@H](CC(C)C)NC(=O)[C@@H]3CSSC[C@@H](C(=O)N[C@@H](Cc4ccc(F)cc4)C(=O)N4CCC[C@H]4C(=O)N[C@@H](CCCNC(=N)N)C(N)=O)NC(=O)[C@H](CCCCN)NC(=O)[C@H](CSSC[C@H](NC(=O)[C@H](CCC(=O)O)NC(=O)[C@H](C(C)C)NC(=O)[C@H](CO)NC(=O)[C@H](C)NC(=O)[C@H](CO)NC1=O)C(=O)N[C@@H](CCCCN)C(=O)N[C@@H](CCC(N)=O)C(=O)N[C@@H](CCCCN)C(=O)N3)NC(=O)[C@H](CCCCN)NC(=O)[C@H](CCCCN)NC(=O)[C@H](CC(N)=O)NC(=O)[C@H](CCSC)NC2=O [Compound 91] (H-S[Nle]D[Nle]RCSASVECKQKCLKAIGSIFGKCMNKKCKC[Phe(4-F)]PR-NH2; disulfide 6-27, 12-32, 16-34) | ≤ 1000 pM | 340 pM | 100 pM |
| CCCC[C@H](NC(=O)[C@H](CC(=O)O)NC(=O)[C@H](CCCC)NC(=O)[C@@H](N)CO)C(=O)N[C@@H](CCCNC(=N)N)C(=O)N[C@H]1CSSC[C@@H]2NC(=O)[C@H](CCCCN)NC(=O)CNC(=O)[C@H](Cc3ccccc3)NC(=O)[C@H]([C@@H](C)CC)NC(=O)[C@H](CO)NC(=O)CNC(=O)[C@H]([C@@H](C)CC)NC(=O)[C@H](C)NC(=O)[C@H](CCCCN)NC(=O)[C@H](CC(C)C)NC(=O)[C@@H]3CSSC[C@@H](C(=O)N[C@@H](Cc4ccc([N+](=O)[O-])cc4)C(=O)N4CCC[C@H]4C(=O)N[C@@H](CCCNC(=N)N)C(N)=O)NC(=O)[C@H](CCCCN)NC(=O)[C@H](CSSC[C@H](NC(=O)[C@H](CCC(=O)O)NC(=O)[C@H](C(C)C)NC(=O)[C@H](CO)NC(=O)[C@H](C)NC(=O)[C@H](CO)NC1=O)C(=O)N[C@@H](CCCCN)C(=O)N[C@@H](CCC(N)=O)C(=O)N[C@@H](CCCCN)C(=O)N3)NC(=O)[C@H](CCCCN)NC(=O)[C@H](CCCCN)NC(=O)[C@H](CC(N)=O)NC(=O)[C@H](CCSC)NC2=O [Compound 92] (H-S[Nle]D[Nle]RCSASVECKQKCLKAIGSIFGKCMNKKCKC[Phe(4-NO2)]PR-NH2; disulfide 6-27, 12-32, 16-34) |  | 1300 pM | 490 pM |
| CCCC[C@H](NC(=O)[C@H](CC(=O)O)NC(=O)[C@H](CCCC)NC(=O)[C@@H](N)CO)C(=O)N[C@@H](CCCNC(=N)N)C(=O)N[C@H]1CSSC[C@@H]2NC(=O)[C@H](CCCCN)NC(=O)CNC(=O)[C@H](Cc3ccccc3)NC(=O)[C@H]([C@@H](C)CC)NC(=O)[C@H](CO)NC(=O)CNC(=O)[C@H]([C@@H](C)CC)NC(=O)[C@H](C)NC(=O)[C@H](CCCCN)NC(=O)[C@H](CC(C)C)NC(=O)[C@@H]3CSSC[C@@H](C(=O)N[C@@H](Cc4ccc(C)cc4)C(=O)N4CCC[C@H]4C(=O)N[C@@H](CCCNC(=N)N)C(N)=O)NC(=O)[C@H](CCCCN)NC(=O)[C@H](CSSC[C@H](NC(=O)[C@H](CCC(=O)O)NC(=O)[C@H](C(C)C)NC(=O)[C@H](CO)NC(=O)[C@H](C)NC(=O)[C@H](CO)NC1=O)C(=O)N[C@@H](CCCCN)C(=O)N[C@@H](CCC(N)=O)C(=O)N[C@@H](CCCCN)C(=O)N3)NC(=O)[C@H](CCCCN)NC(=O)[C@H](CCCCN)NC(=O)[C@H](CC(N)=O)NC(=O)[C@H](CCSC)NC2=O [Compound 93] (H-S[Nle]D[Nle]RCSASVECKQKCLKAIGSIFGKCMNKKCKC[Phe(4-Me)]PR-NH2; disulfide 6-27, 12-32, 16-34) |  | 540 pM | 130 pM |
| CCCC[C@H](NC(=O)[C@@H]1CCCN1)C(=O)N[C@@H](CCC(=O)O)C(=O)N[C@@H](CCCC)C(=O)N[C@@H](CCCNC(=N)N)C(=O)N[C@H]1CSSC[C@@H]2NC(=O)[C@H](CCCCN)NC(=O)CNC(=O)[C@H](Cc3ccccc3)NC(=O)[C@H]([C@@H](C)CC)NC(=O)[C@H](CO)NC(=O)CNC(=O)[C@H]([C@@H](C)CC)NC(=O)[C@H](C)NC(=O)[C@H](CC(C)C)NC(=O)[C@H](CC(C)C)NC(=O)[C@@H]3CSSC[C@@H](C(=O)N[C@@H](Cc4ccc(O)cc4)C(=O)N4CCC[C@H]4C(=O)N[C@@H](CCCNC(=N)N)C(=O)O)NC(=O)[C@H](CCCCN)NC(=O)[C@H](CSSC[C@H](NC(=O)[C@H](CCC(=O)O)NC(=O)[C@H](C(C)C)NC(=O)[C@H](CO)NC(=O)[C@H](C)NC(=O)[C@H](CO)NC1=O)C(=O)N[C@@H](CCCCN)C(=O)N[C@@H](CCC(N)=O)C(=O)N[C@@H](CCCCN)C(=O)N3)NC(=O)[C@H](CCCCN)NC(=O)[C@H](CCCCN)NC(=O)[C@H](CC(N)=O)NC(=O)[C@H](CCCC)NC2=O [Compound 99] (H-P[Nle]E[Nle]RCSASVECKQKCLLAIGSIFGKC[Nle]NKKCKCYPR-OH; disulfide 6-27, 12-32, 16-34) | ≤ 1000 pM | 500 pM | 340 pM |
| CCCC[C@@H]1NC(=O)[C@@H]2CSSC[C@H](NC(=O)[C@H](CCCNC(=N)N)NC(=O)[C@H](CCC(=O)O)NC(=O)[C@H](CC(=O)O)NC(=O)[C@@H](NC(=O)[C@@H]3CCCN3)[C@@H](C)CC)C(=O)N[C@@H](CO)C(=O)N[C@@H](C)C(=O)N[C@@H](CO)C(=O)N[C@@H](C(C)C)C(=O)N[C@@H](CCC(=O)O)C(=O)N[C@H]3CSSC[C@H](NC(=O)[C@H](CCCCN)NC(=O)[C@H](CCCCN)NC(=O)[C@H](CC(N)=O)NC1=O)C(=O)N[C@@H](CCCCN)C(=O)N[C@H](C(=O)N[C@@H](Cc1ccc(O)cc1)C(=O)N1CCC[C@H]1C(=O)N[C@@H](CCCNC(=N)N)C(=O)O)CSSC[C@H](NC(=O)[C@H](CCCCN)NC(=O)[C@H](CCC(N)=O)NC(=O)[C@H](CCCCN)NC3=O)C(=O)N[C@@H](CC(C)C)C(=O)N[C@@H](C)C(=O)N[C@@H](C)C(=O)N[C@@H]([C@@H](C)CC)C(=O)NCC(=O)N[C@@H](CO)C(=O)N[C@@H]([C@@H](C)CC)C(=O)N[C@@H](Cc1ccccc1)C(=O)NCC(=O)N[C@@H](CCCCN)C(=O)N2 [Compound 100] (H-PIDERCSASVECKQKCLAAIGSIFGKC[Nle]NKKCKCYPR-OH; disulfide 6-27, 12-32, 16-34) | ≤ 1000 pM | 870 pM | 850 pM |
| CCCC[C@H](NC(=O)[C@@H]1CCCN1)C(=O)N[C@@H](CC(=O)O)C(=O)N[C@@H](CCCC)C(=O)N[C@@H](CCCNC(=N)N)C(=O)N[C@H]1CSSC[C@@H]2NC(=O)[C@H](CCCCN)NC(=O)CNC(=O)[C@H](Cc3ccccc3)NC(=O)[C@H]([C@@H](C)CC)NC(=O)[C@H](CO)NC(=O)CNC(=O)[C@H]([C@@H](C)CC)NC(=O)[C@H](C)NC(=O)[C@H](C)NC(=O)[C@H](CC(C)C)NC(=O)[C@@H]3CSSC[C@@H](C(=O)N[C@@H](Cc4ccc(O)cc4)C(=O)N4CCC[C@H]4C(=O)N[C@@H](CCCNC(=N)N)C(=O)O)NC(=O)[C@H](CCCCN)NC(=O)[C@H](CSSC[C@H](NC(=O)[C@H](CCC(=O)O)NC(=O)[C@H](C(C)C)NC(=O)[C@H](CO)NC(=O)[C@H](C)NC(=O)[C@H](CO)NC1=O)C(=O)N[C@@H](C)C(=O)N[C@@H](CCC(N)=O)C(=O)N[C@@H](CCCCN)C(=O)N3)NC(=O)[C@H](CCCCN)NC(=O)[C@H](CCCCN)NC(=O)[C@H](CC(N)=O)NC(=O)[C@H](CCSC)NC2=O [Compound 102] (H-P[Nle]D[Nle]RCSASVECAQKCLAAIGSIFGKCMNKKCKCYPR-OH; disulfide 6-27, 12-32, 16-34) | ≤ 1000 pM | 320 pM | 450 pM |
| CCCC[C@@H]1NC(=O)[C@@H]2CSSC[C@H](NC(=O)[C@H](CCCNC(=N)N)NC(=O)[C@@H](N)CC(C)C)C(=O)N[C@@H](CO)C(=O)N[C@@H](C)C(=O)N[C@@H](CO)C(=O)N[C@@H](C(C)C)C(=O)N[C@@H](CCC(=O)O)C(=O)N[C@H]3CSSC[C@H](NC(=O)[C@H](CCCCN)NC(=O)[C@H](CCCCN)NC(=O)[C@H](CC(N)=O)NC1=O)C(=O)N[C@@H](CCCCN)C(=O)N[C@H](C(=O)N[C@@H](Cc1ccc(O)cc1)C(=O)N1CCC[C@H]1C(=O)N[C@@H](CCCNC(=N)N)C(=O)O)CSSC[C@H](NC(=O)[C@H](CCCCN)NC(=O)[C@H](CCC(N)=O)NC(=O)[C@H](CCCCN)NC3=O)C(=O)N[C@@H](CC(C)C)C(=O)N[C@@H](CCCCN)C(=O)N[C@@H](C)C(=O)N[C@@H]([C@@H](C)CC)C(=O)NCC(=O)N[C@@H](CO)C(=O)N[C@@H]([C@@H](C)CC)C(=O)N[C@@H](Cc1ccccc1)C(=O)NCC(=O)N[C@@H](CCCCN)C(=O)N2 [Compound 114] (H-LRCSASVECKQKCLKAIGSIFGKC[Nle]NKKCKCYPR-OH; disulfide 3-24, 9-29, 13-31) |  | 2100 pM | 390 pM |
| CCCC[C@@H]1NC(=O)[C@@H]2CSSC[C@H](NC(=O)[C@H](CCCNC(=N)N)NC(=O)[C@H](CC(C)C)NC(C)=O)C(=O)N[C@@H](CO)C(=O)N[C@@H](C)C(=O)N[C@@H](CO)C(=O)N[C@@H](C(C)C)C(=O)N[C@@H](CCC(=O)O)C(=O)N[C@H]3CSSC[C@H](NC(=O)[C@H](CCCCN)NC(=O)[C@H](CCCCN)NC(=O)[C@H](CC(N)=O)NC1=O)C(=O)N[C@@H](CCCCN)C(=O)N[C@H](C(=O)N[C@@H](Cc1ccc(O)cc1)C(=O)N1CCC[C@H]1C(=O)N[C@@H](CCCNC(=N)N)C(=O)O)CSSC[C@H](NC(=O)[C@H](CCCCN)NC(=O)[C@H](CCC(N)=O)NC(=O)[C@H](CCCCN)NC3=O)C(=O)N[C@@H](CC(C)C)C(=O)N[C@@H](C)C(=O)N[C@@H](C)C(=O)N[C@@H]([C@@H](C)CC)C(=O)NCC(=O)N[C@@H](CO)C(=O)N[C@@H]([C@@H](C)CC)C(=O)N[C@@H](Cc1ccccc1)C(=O)NCC(=O)N[C@@H](CCCCN)C(=O)N2 [Compound 115] (Ac-LRCSASVECKQKCLAAIGSIFGKC[Nle]NKKCKCYPR-OH; disulfide 3-24, 9-29, 13-31) | ≤ 1000 pM | 900 pM | 310 pM |

From patent US11780893B2, “Kv1.3 blockers” (Zealand Pharma A/S, priority 2019, dated 2023)
